Test results published in patent US20130202545A1, “Stablised Polyphenol Derivatives, Process for Their Manufacture, and Uses Thereof” (BERKEM S.A., priority 2010, published 2013).

Tested on: explants of human skin
Test: Anti-lipoperoxidant activity: MDA level in UV-irradiated human skin explants
Assay type: cell-based
Excerpt: Oxygenated free radicals are produced in large quantities on the skin as a result of UV irradiation. These free radical species cause various forms of degradation to cellular components, and in particular, to membrane lipids. The latter are transformed into various hydroperoxide derivatives, such as for example malonyldialdehyde (MDA), and 4-hydrononenal (4-HNE). The determination of the amount of MDA in skin tissues is thus a good indicator of the production of oxygenated free radicals and peroxidation of membrane lipids. A comparison of the levels of MDA between treated and non-treated subjects therefore indicates whether the product applied has anti-lipoperoxidant activity. The model used for the experiments is one of human skin explants which are maintained in survival mode at 37° C., a humid atmosphere and 5% CO2. The skin explants are divided into three positive control batch treated with vitamin E (2 mg per explant) The products to be tested are dissolved at a concentration of 2% Vaseline oil. This solution is applied topically to the skin explants at a rate of one 30 micro-litre application per explant per day for 5 days. […] Levels of MDA (expressed in pmoles of MDA/ml of medium) in the explants are measured for both the treated and untreated batches. […] Antiradical activity was determined using the same method described in example 17. […]

Vitamin E
% Reduction in MDA (Example 21, etherified (silyl ether) OPC, same method as the earlier MDA example): 11% | % Reduction in MDA (products 2% in Vaseline oil, 30 micro-litre per explant per day for 5 days (vitamin E 2 mg per explant), UV A and UV B on day 5, treated vs untreated explants): 11%
